The values that follow come from patent US12178793B2, “Ophthalmic compositions containing a nitric oxide releasing prostamide” (NICOX SA, priority 2018, dated 2024).

Series [1] in a line: Aqueous solubility of the active ingredient. The format is physicochemical. As to conditions: water, read-out: minimum aqueous solubility. As for the experimental part: Hexanoic acid, 6-(nitrooxy)-, (1S,2E)-3-[(1R,2R,3S,5R)-2-[(2Z)-7-(ethylamino)-7-oxo-2-hepten-1-yl]-3,5-dihydroxycyclopentyl]-1-(2-phenylethyl)-2-propen-1-yl ester is a viscous oil having a minimum aqueous solubility of 0.02 mg/ml therefore aqueous pharmaceutical compositions of hexanoic acid, 6-(nitrooxy)-, (1S,2E)-3-[(1R,2R,3S,5R)-2-[(2Z)-7-(ethylamino)-7-oxo-2-hepten-1-yl]-3,5-dihydroxycyclopentyl]-1-(2-phenylethyl)-2-propen-1-yl ester must contain solubilizing agents that increase the water solubility of the compound and allow achieving therapeutically active concentrations of the compound.

For series [2] the following is noted: cited from earlier work.
Series [3] in a line: Solubility in aqueous solutions at pH 6.0 containing a solubilizing agent. Format: physicochemical.
The nature of series [4]: Pharmacokinetic evaluation after single ocular instillation, Study 2 (bimatoprost free acid in aqueous humor). The following applies: bimatoprost free acid in aqueous humor as marker; benzalkonium chloride up to 0.02% w/w. Format: in vivo, Dutch Belted Rabbits. An excerpt:
Pharmacokinetic Evaluation in Dutch Belted Rabbits after Single Ocular Instillation
The aim of this study was to assess the aqueous humor content of bimatoprost free acid following topical ocular dosing with three different aqueous ophthalmic solutions containing hexanoic acid, 6-(nitrooxy)-, (1S,2E)-3-[(1R,2R,3S,5R)-2-[(2Z)-7-(ethylamino)-7-oxo-2-hepten-1-yl]-3,5-dihydroxycyclopentyl]-1-(2-phenylethyl)-2-propen-1-yl ester (0.042% w/w) in three different vehicles reported in Table 10.
Forty animals were included in the study. They were allocated into four groups of 10 animals/group and were administered with the above reported tested aqueous ophthalmic solutions
All animals included in the study were administered by ocular instillation of both eyes by means of a graduated pipette at a volume of […]. Two animals per formula were sacrificed at 0 h (pre-dose), 1 h, 2 h, 4 h and 8 h, and aqueous humor samples were obtained immediately from both eyes.

In brackets after ≈: the same amount, converted by molar mass.

On to `CCNC(=O)CCC/C=C\C[C@@H]1[C@@H](/C=C/[C@H](CCc2ccccc2)OC(=O)CCCCCO[N+](=O)[O-])[C@H](O)C[C@@H]1O` [NCX 470, Hexanoic acid, 6-(nitrooxy)-, (1S,2E)-3-[(1R,2R,3S,5R)-2-[(2Z)-7-(ethylamino)-7-oxo-2-hepten-1-yl]-3,5-dihydroxycyclopentyl]-1-(2-phenylethyl)-2-propen-1-yl ester], for which the figures for the solubility in series [1], in series [3] (aqueous solution at pH 6.0 containing 0.5% (w/w) macrogol 15-hydroxystearate (Kolliphor HS15)) and in series [3] (aqueous solution at pH 6.0 containing 0.5% (w/w) polysorbate 80 (Tween 80)) were 20 µg/mL (≈ 34.8 µM), 0.070 % (w/w) and 0.074 % (w/w), respectively. The “intra ocular pressure (IOP)-lowering” value in series [2] (Impagnatiello et al., Invest Ophthalmol Vis Sci. 2015) is “effective”. Moreover, in series [2] (vs equimolar doses of bimatoprost, vehicle 0.25% Tween 80, 0.02% BAK, 2% glycerine and 0.1% EDTA, Br J Pharmacol 2018), the “IOP-lowering efficacy versus bimatoprost” value is “greater IOP-lowering efficacy”.
benzalkonium chloride: the “effect of the excipient on the ocular penetration of NCX 470” value in series [4] was “did not exert any effect”.
